Paper PMC5513037, “Examining the influence of specificity ligands and ATP-competitive ligands on the overall effectiveness of bivalent kinase inhibitors” (Proteome Science, 2017)

Assays:
PIK3R4 = target: T1, PIK3R4 (Homo sapiens, UniProt Q99570); experiment: Imatinib-matrix competition in K562 lysate; type: binding; conditions: read-out: RB50 (the source's name)
T1 construct: endogenous in cells; host or cells: K562

BRDT = BRDT (Homo sapiens, UniProt Q58F21); experiment: biochemical
From the text: (§2) Data were visualized for further analysis using Spotfire DXP.

NRBP1 = NRBP1 (Homo sapiens, UniProt Q9UHY1); experiment: biochemical
From the text: as §2

MAP2K5 = target: T2, MAP2K5 (Homo sapiens, UniProt Q13163); experiment: KAM-matrix competition in K562 lysate; type: binding; conditions: relative to 0 uM KAM = 0;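 also: median log10 fold change of treatment over DMSO control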
T2 construct: endogenous in cells; host or cells: K562
T2 sequence (Q13163 1-448): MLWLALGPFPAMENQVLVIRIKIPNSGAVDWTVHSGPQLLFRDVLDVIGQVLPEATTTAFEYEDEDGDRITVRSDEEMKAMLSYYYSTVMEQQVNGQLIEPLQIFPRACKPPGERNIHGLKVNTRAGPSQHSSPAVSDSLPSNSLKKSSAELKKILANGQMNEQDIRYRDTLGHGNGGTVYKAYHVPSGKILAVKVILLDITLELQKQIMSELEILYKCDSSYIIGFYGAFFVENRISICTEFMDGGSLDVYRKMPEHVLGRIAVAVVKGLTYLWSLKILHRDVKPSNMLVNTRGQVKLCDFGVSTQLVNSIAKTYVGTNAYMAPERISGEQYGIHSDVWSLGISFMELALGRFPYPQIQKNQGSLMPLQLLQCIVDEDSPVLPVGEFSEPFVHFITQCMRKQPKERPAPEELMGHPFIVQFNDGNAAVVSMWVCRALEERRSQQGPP
Method: Supplement 12953_2017_125_MOESM1_ESM.zip/MS_Supp Info.xlsx, sheet "KAM" | column: 10 uM KAM; 1 uM KAM; 0.1 uM KAM; 0.01 uM KAM

RPS6KC1 = target: T3, RPS6KC1 (Homo sapiens, UniProt Q96S38); experiment: KAM-matrix competition in K562 lysate; type: binding;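 as to 0.001 uM KAM: median log10 fold change of treatment over DMSO control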;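 as to 0.1 uM KAM: median log10 fold change of treatment over DMSO control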;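 as to 1 uM KAM: median log10 fold change of treatment over DMSO control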;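 as to 10 uM KAM: median log10 fold change of treatment over DMSO control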
T3 construct: endogenous in cells; host or cells: K562 cell lysate
T3 sequence (Q96S38 1-1066): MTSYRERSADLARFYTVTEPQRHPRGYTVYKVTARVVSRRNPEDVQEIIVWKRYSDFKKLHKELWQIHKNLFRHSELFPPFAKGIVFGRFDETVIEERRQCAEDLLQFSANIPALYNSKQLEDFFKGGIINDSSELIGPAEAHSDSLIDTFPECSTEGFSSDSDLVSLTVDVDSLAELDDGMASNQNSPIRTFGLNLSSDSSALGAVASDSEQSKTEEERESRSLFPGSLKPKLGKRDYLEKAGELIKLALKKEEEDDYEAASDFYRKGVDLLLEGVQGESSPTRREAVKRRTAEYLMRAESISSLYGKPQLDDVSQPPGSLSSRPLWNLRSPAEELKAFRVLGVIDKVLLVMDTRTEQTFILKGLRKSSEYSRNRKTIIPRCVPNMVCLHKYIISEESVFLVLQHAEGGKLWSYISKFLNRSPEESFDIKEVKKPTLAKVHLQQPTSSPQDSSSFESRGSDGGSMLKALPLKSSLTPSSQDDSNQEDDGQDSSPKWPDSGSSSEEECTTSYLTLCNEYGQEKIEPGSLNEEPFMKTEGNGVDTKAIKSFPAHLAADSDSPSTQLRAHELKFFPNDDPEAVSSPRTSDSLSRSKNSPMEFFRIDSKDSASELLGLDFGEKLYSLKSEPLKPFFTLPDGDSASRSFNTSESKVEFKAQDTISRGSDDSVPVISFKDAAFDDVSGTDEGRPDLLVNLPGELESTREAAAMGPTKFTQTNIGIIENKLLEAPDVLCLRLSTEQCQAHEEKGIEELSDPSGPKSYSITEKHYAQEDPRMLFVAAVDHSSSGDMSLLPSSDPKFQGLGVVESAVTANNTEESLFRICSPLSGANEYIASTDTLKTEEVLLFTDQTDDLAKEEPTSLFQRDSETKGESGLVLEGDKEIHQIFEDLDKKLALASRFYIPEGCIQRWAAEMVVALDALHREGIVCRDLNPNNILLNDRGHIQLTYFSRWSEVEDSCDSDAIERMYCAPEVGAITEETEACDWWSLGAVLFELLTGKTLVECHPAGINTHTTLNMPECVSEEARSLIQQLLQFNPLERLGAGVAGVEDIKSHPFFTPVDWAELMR
Method: Supplement 12953_2017_125_MOESM1_ESM.zip/MS_Supp Info.xlsx, sheet "KAM" | column: 10 uM KAM; 1 uM KAM; 0.1 uM KAM; 0.001 uM KAM; RB50

CDK6 = target: T4, CDK6 (Homo sapiens, UniProt Q00534); experiment: KAM-matrix competition in K562 lysate; type: binding; conditions: relative to 0 uM KAM = 0;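 also: median log10 fold change of treatment over DMSO control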
T4 construct: endogenous in cells; host or cells: K562
Method: (§1) Supplement 12953_2017_125_MOESM1_ESM.zip/MS_Supp Info.xlsx, sheet "KAM" | column: 10 uM KAM; 1 uM KAM; 0.1 uM KAM; 0.001 uM KAM

MAP3K11 = target: T5, MAP3K11 (Homo sapiens, UniProt Q16584); experiment: KAM-matrix competition in K562 lysate; type: binding; conditions: relative to 0 uM KAM = 0;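 also: median log10 fold change of treatment over DMSO control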
T5 construct: endogenous in cells; host or cells: K562
Method: as §1

T5 sequence (Q16584 whole entry): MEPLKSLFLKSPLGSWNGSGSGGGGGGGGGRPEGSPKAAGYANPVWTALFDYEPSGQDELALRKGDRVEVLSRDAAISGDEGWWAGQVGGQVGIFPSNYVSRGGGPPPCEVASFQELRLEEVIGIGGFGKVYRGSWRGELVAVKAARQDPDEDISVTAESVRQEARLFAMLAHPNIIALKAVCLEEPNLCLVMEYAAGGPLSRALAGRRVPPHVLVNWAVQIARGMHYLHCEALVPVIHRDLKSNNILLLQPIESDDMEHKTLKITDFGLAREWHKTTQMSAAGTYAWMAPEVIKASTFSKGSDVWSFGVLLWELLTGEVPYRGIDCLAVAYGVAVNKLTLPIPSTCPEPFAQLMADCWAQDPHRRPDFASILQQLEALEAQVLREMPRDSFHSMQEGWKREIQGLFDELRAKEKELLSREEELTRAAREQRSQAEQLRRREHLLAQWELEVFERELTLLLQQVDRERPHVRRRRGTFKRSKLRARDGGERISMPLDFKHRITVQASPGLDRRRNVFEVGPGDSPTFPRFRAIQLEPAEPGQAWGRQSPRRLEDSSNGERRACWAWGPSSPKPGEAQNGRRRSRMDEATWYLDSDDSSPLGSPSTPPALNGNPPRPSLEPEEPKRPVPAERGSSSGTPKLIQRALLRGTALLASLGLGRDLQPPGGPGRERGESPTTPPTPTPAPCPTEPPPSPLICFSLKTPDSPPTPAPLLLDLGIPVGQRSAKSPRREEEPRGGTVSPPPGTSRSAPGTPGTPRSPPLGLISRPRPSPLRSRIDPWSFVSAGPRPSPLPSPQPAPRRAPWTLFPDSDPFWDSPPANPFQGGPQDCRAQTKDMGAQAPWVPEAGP
T4 sequence (Q00534 whole entry): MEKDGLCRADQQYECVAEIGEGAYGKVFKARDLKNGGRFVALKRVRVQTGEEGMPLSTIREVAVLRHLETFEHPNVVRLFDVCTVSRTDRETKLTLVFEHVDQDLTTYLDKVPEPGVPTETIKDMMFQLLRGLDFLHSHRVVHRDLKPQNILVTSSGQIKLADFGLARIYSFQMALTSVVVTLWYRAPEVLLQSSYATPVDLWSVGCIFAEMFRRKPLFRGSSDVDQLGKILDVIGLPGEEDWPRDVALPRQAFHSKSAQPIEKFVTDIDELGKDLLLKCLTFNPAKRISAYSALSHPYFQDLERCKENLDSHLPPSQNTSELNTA
NRBP1, sequence (Q9UHY1 whole entry): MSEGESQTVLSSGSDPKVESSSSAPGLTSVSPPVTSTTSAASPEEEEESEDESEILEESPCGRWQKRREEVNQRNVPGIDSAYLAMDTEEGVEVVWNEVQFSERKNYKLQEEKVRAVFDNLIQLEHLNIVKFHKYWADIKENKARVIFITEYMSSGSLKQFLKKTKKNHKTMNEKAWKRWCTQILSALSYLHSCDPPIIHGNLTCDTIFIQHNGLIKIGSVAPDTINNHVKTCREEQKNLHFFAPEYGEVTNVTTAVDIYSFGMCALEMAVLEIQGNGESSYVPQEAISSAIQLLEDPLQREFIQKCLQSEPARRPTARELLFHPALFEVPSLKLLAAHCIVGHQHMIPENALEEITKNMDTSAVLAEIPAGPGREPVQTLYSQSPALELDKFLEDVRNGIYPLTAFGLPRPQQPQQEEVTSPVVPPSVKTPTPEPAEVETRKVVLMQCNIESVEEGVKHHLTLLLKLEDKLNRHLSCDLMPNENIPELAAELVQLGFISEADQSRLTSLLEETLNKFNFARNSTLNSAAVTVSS
T1 sequence (Q99570 2-1358 limits assumed): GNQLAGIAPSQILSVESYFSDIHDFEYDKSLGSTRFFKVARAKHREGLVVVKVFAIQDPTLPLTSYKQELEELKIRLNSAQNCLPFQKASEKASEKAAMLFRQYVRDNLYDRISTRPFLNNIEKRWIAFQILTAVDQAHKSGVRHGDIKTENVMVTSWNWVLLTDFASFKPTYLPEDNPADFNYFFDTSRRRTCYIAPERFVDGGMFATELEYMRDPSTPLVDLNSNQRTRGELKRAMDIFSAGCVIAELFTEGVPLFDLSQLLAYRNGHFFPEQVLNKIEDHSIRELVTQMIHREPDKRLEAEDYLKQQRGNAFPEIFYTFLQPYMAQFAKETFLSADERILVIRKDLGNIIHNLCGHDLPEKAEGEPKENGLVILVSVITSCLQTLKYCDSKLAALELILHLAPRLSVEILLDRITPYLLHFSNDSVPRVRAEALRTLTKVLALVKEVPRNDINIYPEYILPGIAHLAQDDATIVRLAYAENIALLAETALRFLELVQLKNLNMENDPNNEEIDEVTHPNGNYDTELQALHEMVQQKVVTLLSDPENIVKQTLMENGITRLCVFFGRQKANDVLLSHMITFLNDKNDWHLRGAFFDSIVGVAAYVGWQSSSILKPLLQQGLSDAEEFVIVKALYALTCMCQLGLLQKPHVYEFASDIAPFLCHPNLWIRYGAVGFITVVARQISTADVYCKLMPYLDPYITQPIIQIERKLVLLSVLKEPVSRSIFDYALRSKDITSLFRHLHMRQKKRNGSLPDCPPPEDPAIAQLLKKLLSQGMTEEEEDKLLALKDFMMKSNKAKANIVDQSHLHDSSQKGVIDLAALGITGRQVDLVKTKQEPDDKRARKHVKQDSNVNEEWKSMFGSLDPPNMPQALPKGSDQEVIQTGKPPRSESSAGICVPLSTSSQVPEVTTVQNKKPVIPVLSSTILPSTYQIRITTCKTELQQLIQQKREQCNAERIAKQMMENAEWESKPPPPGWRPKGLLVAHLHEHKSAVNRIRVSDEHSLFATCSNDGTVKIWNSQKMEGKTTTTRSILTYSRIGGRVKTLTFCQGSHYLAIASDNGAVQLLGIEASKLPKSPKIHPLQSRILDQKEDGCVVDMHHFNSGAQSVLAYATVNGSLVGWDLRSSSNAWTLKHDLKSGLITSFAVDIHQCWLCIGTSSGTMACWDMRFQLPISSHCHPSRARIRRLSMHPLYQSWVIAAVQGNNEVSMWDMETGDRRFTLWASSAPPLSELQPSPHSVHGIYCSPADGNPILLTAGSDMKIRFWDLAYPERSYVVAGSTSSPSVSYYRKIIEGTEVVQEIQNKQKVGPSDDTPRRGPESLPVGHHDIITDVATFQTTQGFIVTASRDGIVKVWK
T1 sequence (Q8NEB9 whole entry partner): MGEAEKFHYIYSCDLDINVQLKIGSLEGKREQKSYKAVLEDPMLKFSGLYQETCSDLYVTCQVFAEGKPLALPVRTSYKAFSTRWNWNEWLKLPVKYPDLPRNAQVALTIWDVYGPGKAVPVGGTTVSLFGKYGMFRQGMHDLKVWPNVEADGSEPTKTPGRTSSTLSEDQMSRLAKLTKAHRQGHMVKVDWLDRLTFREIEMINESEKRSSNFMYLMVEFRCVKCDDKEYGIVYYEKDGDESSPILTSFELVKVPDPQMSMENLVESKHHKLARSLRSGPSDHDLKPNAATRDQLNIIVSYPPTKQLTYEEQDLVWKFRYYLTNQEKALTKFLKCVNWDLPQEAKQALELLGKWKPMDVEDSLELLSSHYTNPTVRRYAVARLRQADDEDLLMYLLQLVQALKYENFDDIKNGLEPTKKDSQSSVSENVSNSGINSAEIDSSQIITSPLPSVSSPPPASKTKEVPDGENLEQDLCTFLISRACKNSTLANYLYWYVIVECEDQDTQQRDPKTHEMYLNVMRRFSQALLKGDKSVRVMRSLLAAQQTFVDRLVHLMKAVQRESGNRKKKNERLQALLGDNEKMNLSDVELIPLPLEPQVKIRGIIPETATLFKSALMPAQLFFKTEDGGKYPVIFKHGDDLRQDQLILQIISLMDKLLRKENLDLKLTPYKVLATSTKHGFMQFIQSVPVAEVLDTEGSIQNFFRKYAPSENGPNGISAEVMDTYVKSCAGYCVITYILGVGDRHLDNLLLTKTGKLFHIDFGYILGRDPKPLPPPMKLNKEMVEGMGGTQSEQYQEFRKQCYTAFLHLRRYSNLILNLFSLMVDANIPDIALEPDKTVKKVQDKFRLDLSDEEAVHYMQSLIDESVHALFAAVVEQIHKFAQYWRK

IC50 (PIK3R4) [µM] | IC50 (BRDT) [µM] | IC50 (NRBP1) [µM] | SMILES | 0.01 uM KAM (MAP2K5) | 0.1 uM KAM (MAP2K5) | 1 uM KAM (MAP2K5) | 10 uM KAM (MAP2K5) | IC50 (RPS6KC1; KAM 0.001-10 uM, read-out: RB50 (the source's name)) [µM] | 0.001 uM KAM (RPS6KC1; relative to 0 uM KAM = 0) | 0.1 uM KAM (RPS6KC1; relative to 0 uM KAM = 0) | 1 uM KAM (RPS6KC1; relative to 0 uM KAM = 0) | 10 uM KAM (RPS6KC1; relative to 0 uM KAM = 0) | 0.001 uM KAM (CDK6) | 0.1 uM KAM (CDK6) | 1 uM KAM (CDK6) | 10 uM KAM (CDK6) | 0.001 uM KAM (MAP3K11) | 0.1 uM KAM (MAP3K11) | 1 uM KAM (MAP3K11) | 10 uM KAM (MAP3K11)
> 10 | > 10 | > 10 | Cc1ccc(NC(=O)c2ccc(CN3CCN(C)CC3)cc2)cc1Nc1nccc(-c2cccnc2)n1 [Imatinib] |  |  |  |  |  |  |  |  |  |  |  |  |  |  |  |  | 
 |  |  | N#CCc1ccc(Nc2nc(NCCCN)cc(Nc3cc(C4CC4)[nH]n3)n2)cc1 [KAM] | 0.01409 | -0.1362 | -0.4773 | -0.5729 | > 10 | -0.005381 | -0.07914 | -0.09953 | -0.2964 | 0.01418 | -0.05531 | -0.08871 | -0.05328 | -0.02883 | -0.2112 | -0.4525 | -0.59
